As usually defined, the Ki is the dissociation constant of the complex between target and ligand, obtained from inhibition or displacement. The term IC50 denotes the concentration that inhibits the measured activity by half.

Calls of active or inactive are those of the source.

We go through three compounds from ChEMBL document CHEMBL1201862, “PubChem BioAssay data set” (2004).

The target in experiment [1] is G protein-coupled receptor kinase 5 (Homo sapiens, UniProt P34947). The experiment is described as follows: Navigating the Kinome. Panel member name: GPRK5. Format: functional.
Experiment [2] has as its target Platelet-derived growth factor receptor alpha (Homo sapiens, UniProt P16234). The experiment is described as follows: Navigating the Kinome. Panel member name: PDGFRA. Format: functional.
In experiment [3] the target is Dual specificity mitogen-activated protein kinase kinase 2 (Homo sapiens, UniProt P36507). Put plainly: Navigating the Kinome. Panel member name: MAP2K2. Format: functional.
The target of experiment [4] is Inhibitor of nuclear factor kappa-B kinase subunit epsilon (Homo sapiens, UniProt Q14164). Put plainly: Navigating the Kinome. Panel member name: IKBKE. In kind it is functional.
Experiment [5] concerns the target Serine/threonine-protein kinase D2 (Homo sapiens, UniProt Q9BZL6). In kind it is functional.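 Further: measured against PRKD2 as one member of a kinome-wide kinase profiling panel.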
Experiment [6] concerns the target Calcium/calmodulin-dependent protein kinase type II subunit gamma (Homo sapiens, UniProt Q13555). Format: functional.
Experiment [7] concerns the target Cyclin-dependent kinase 2 (Homo sapiens, UniProt P24941). Format: functional.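 Further: CDK2 measured as one member of a broad kinome profiling panel.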
The next experiment deals with SRSF protein kinase 1 (Homo sapiens, UniProt Q96SB4). In kind it is functional.
Experiment [8] has as its target Casein kinase II subunit alpha (Homo sapiens, UniProt P68400). Format: functional.
For experiment [9], the target named is Calcium/calmodulin-dependent protein kinase type II subunit delta (Homo sapiens, UniProt Q13557). Format: functional.
Experiment [10] has as its target Tyrosine-protein kinase ITK/TSK (Homo sapiens, UniProt Q08881). Format: functional.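 Further: affinity for ITK measured as one member of a broad kinase panel profiling binding across the kinome.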
The target of experiment [11] is Homeodomain-interacting protein kinase 2 (Homo sapiens, UniProt Q9H2X6). Format: functional.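 Further: measured within a kinome-wide kinase profiling panel, HIPK2 being one panel member.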
Experiment [12] concerns the target Mitogen-activated protein kinase 13 (Homo sapiens, UniProt O15264). Format: functional.
The target of experiment [13] is Non-receptor tyrosine-protein kinase TYK2 (Homo sapiens, UniProt P29597). In kind it is functional.
Experiment [14] concerns the target Dual specificity tyrosine-phosphorylation-regulated kinase 3 (Homo sapiens, UniProt O43781). Format: functional.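 Further: measured as one member of a broad kinase panel.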
Experiment [15] addresses 3-phosphoinositide-dependent protein kinase 1 (Homo sapiens, UniProt O15530). Format: functional.
The target in experiment [16] is Serine/threonine-protein kinase MRCK alpha (Homo sapiens, UniProt Q5VT25). Format: functional.
The target in a further experiment is T1, Caspase-3 (Homo sapiens, UniProt P42574).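 Further: Dose-response selectivity test against caspase-3 for candidate inhibitors of sentrin-specific proteases (SENPs).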
T1 sequence (P42574 whole entry): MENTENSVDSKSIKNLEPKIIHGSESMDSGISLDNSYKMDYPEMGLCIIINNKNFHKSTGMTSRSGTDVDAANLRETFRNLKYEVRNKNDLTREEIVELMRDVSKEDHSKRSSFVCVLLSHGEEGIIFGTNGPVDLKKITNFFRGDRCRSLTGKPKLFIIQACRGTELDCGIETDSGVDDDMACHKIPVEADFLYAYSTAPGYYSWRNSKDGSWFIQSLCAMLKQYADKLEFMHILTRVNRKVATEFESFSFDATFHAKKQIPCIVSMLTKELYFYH
In kind it is functional.

Experiment [17] deals with T2, Sentrin-specific protease 6 (Homo sapiens, UniProt Q9GZR1).
T2 sequence (Q9GZR1 whole entry): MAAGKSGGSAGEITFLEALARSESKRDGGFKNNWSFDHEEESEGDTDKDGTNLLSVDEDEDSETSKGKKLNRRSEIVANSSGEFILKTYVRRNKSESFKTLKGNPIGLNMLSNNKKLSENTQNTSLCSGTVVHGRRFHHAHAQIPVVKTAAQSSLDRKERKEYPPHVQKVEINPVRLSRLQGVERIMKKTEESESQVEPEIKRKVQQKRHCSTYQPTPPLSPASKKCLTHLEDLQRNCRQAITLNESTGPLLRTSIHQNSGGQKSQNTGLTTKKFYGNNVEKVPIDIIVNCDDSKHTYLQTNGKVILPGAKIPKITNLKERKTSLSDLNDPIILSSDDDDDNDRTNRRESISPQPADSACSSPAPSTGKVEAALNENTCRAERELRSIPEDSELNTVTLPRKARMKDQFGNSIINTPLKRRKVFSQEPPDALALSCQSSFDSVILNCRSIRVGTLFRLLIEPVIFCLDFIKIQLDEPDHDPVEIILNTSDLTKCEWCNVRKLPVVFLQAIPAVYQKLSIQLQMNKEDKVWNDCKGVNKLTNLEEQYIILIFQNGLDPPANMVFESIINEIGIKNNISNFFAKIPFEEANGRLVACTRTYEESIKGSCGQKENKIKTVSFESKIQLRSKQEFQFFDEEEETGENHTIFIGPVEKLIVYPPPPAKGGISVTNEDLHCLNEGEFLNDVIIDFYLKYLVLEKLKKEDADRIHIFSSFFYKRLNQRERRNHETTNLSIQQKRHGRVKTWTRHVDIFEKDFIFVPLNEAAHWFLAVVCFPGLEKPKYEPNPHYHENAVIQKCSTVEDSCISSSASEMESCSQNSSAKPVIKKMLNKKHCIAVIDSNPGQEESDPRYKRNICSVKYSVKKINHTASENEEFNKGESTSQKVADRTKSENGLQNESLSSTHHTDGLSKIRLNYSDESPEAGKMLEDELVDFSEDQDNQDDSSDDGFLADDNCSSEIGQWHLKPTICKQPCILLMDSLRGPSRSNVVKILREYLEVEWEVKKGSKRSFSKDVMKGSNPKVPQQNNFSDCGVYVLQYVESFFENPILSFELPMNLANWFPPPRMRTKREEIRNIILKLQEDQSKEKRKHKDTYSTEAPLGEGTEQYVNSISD
Format: functional.

Experiment [18] deals with T3, Tyrosyl-DNA phosphodiesterase 2 (Homo sapiens, UniProt O95551).
T3 sequence (O95551 whole entry): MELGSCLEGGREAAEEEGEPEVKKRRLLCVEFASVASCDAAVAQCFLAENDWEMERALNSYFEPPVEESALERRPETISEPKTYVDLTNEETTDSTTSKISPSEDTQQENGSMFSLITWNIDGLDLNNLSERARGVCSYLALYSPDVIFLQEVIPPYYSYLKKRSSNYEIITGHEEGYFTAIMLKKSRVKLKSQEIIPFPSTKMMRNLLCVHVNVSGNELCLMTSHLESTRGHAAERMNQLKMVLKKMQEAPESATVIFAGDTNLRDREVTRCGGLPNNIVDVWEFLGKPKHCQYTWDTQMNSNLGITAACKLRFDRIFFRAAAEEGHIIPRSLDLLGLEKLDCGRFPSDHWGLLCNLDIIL
The experiment is described as follows: human TDP2 enzyme inhibitors, dose response, biochemical, epi absorbance, IC50 (AID 743297).

Chain of G protein-coupled receptor kinase 5 (P34947 whole entry): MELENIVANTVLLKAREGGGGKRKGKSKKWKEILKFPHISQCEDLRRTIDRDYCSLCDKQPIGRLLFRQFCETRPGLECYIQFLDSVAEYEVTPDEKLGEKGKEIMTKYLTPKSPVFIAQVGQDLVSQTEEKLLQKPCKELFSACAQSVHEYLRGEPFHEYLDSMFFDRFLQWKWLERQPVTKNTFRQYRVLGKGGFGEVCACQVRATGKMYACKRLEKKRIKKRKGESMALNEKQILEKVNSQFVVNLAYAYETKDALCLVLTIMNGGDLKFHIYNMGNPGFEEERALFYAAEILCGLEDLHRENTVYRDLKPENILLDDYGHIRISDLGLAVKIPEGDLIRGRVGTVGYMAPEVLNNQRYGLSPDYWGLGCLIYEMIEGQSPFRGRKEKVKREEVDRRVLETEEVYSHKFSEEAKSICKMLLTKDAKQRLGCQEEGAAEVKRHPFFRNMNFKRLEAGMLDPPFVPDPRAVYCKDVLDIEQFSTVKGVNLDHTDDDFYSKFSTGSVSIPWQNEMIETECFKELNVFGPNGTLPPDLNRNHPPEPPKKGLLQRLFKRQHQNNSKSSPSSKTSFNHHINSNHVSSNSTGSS
Chain of Calcium/calmodulin-dependent protein kinase type II subunit delta (Q13557 whole entry): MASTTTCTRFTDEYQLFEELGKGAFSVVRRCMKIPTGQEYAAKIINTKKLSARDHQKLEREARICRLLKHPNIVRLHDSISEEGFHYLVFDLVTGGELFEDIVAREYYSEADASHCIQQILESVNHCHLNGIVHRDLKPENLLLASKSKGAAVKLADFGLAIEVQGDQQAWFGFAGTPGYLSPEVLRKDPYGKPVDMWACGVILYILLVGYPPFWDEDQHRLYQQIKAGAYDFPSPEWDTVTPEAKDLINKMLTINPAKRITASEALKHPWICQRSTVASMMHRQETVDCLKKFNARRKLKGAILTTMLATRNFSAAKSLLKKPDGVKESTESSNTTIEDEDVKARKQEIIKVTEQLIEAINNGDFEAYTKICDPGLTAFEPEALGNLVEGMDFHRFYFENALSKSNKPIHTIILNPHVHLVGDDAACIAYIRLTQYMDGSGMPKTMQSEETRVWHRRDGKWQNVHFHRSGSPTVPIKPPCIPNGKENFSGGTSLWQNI
Chain of Calcium/calmodulin-dependent protein kinase type II subunit gamma (Q13555 whole entry): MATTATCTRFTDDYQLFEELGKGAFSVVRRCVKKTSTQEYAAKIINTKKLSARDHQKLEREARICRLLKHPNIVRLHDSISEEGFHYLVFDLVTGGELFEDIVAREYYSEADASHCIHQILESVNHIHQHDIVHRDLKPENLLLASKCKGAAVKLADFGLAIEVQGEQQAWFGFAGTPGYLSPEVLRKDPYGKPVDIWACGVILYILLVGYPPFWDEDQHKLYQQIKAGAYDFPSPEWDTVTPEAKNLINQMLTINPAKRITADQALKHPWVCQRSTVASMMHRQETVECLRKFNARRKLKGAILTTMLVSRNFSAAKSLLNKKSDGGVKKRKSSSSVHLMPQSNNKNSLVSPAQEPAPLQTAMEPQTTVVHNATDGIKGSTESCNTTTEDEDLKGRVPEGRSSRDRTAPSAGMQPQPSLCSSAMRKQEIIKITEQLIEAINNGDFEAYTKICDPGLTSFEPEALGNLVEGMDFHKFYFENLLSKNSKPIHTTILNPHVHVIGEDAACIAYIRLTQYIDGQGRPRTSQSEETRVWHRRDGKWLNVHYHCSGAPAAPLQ
Chain of Casein kinase II subunit alpha (P68400 whole entry): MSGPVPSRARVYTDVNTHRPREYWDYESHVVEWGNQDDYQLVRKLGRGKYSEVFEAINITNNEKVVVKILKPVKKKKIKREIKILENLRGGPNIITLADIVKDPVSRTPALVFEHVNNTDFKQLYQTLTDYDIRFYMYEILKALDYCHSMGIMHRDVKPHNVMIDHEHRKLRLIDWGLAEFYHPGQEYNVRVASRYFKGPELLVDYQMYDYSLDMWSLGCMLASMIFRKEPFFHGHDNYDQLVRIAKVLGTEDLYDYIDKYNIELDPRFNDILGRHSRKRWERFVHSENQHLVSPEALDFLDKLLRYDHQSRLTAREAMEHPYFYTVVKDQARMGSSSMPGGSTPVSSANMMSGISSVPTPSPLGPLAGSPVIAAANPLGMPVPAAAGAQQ
Chain of Homeodomain-interacting protein kinase 2 (Q9H2X6 whole entry): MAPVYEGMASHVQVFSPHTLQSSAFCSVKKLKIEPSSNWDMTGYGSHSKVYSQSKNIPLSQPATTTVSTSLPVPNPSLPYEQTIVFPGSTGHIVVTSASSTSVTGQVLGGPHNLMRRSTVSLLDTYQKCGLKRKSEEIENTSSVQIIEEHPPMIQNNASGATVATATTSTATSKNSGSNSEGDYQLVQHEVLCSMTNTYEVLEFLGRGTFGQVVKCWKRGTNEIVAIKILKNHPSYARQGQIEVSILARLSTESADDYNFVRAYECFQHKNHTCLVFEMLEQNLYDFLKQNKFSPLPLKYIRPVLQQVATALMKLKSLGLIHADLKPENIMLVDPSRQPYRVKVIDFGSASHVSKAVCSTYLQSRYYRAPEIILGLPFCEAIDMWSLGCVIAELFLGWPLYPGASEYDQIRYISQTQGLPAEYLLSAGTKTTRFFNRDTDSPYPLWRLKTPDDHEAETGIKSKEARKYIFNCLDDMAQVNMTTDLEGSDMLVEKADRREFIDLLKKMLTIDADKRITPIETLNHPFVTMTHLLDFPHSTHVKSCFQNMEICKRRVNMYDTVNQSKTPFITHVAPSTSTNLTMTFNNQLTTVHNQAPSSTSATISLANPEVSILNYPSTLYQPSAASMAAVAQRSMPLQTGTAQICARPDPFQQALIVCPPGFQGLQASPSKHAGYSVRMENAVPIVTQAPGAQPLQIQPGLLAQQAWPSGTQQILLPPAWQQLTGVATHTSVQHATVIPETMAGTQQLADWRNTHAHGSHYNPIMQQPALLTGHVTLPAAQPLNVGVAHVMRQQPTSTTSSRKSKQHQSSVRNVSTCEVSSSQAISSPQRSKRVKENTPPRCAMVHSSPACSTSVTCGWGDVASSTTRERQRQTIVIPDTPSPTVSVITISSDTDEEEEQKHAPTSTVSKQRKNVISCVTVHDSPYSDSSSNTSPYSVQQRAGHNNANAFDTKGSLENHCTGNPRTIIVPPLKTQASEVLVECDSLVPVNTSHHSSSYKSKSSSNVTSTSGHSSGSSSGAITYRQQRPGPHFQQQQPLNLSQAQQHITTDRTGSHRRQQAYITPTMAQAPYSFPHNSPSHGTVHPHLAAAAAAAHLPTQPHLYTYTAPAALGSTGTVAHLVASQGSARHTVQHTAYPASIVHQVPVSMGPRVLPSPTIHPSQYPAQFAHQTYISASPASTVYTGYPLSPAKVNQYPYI
Chain of Serine/threonine-protein kinase MRCK alpha (Q5VT25 whole entry): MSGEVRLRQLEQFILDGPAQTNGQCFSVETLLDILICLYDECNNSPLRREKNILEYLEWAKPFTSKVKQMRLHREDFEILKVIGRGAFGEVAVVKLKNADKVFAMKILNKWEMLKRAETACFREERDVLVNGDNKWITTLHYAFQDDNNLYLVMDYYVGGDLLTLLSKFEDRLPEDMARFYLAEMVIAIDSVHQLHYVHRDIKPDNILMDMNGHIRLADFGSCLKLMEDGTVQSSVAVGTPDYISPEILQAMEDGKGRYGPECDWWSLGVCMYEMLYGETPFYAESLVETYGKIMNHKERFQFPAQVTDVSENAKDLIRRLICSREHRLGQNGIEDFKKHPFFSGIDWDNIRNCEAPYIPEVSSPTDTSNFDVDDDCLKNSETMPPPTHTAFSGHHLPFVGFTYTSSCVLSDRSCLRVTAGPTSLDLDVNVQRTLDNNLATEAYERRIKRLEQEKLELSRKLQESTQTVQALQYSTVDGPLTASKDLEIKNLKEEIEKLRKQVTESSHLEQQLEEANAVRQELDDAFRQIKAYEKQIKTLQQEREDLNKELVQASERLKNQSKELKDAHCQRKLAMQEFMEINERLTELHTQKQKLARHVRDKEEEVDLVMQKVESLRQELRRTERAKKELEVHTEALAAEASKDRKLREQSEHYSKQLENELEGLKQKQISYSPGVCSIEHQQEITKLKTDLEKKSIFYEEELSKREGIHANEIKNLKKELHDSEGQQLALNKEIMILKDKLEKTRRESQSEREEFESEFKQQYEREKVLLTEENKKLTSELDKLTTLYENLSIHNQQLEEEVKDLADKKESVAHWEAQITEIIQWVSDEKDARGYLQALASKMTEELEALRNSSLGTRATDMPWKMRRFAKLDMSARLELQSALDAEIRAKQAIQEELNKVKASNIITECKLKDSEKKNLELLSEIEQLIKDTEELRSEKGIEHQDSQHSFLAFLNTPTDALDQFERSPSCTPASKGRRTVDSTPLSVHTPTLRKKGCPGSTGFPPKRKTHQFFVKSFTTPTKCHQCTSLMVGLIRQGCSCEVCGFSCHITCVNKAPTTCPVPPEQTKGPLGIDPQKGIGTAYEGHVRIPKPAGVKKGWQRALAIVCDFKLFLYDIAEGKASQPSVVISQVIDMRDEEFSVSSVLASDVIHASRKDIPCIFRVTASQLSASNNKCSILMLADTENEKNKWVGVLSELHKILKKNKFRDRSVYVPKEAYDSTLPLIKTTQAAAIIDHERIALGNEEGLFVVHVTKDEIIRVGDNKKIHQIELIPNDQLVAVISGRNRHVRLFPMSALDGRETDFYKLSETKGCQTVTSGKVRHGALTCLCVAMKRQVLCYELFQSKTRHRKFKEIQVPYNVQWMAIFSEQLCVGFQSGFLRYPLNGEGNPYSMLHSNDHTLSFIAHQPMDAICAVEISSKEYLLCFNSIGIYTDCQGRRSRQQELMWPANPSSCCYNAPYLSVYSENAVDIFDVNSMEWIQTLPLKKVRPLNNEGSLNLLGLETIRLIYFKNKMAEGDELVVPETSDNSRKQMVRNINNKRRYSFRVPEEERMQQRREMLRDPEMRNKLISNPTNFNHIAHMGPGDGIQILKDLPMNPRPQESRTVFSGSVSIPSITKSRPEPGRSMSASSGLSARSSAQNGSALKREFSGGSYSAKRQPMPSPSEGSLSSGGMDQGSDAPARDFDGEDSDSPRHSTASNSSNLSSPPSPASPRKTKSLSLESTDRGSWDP

Turning to `[2H]C([2H])([2H])Oc1cccc(C(C)NC(=O)c2sc(-c3ccncc3)nc2C)c1` (stereo not given), the Ki is 3160 nM (active) in experiment [1], > 2510 nM (inactive) in [2], > 3980 nM (inactive) in experiment [3] and > 3160 nM (inactive) in experiment [4].
In the case of `Cc1n[nH]c2ccc(-c3cncc(OCC(N)Cc4ccc(Cl)c(Cl)c4)c3)cc12` (stereo not given), the Ki in [5] is 31.6 nM (active); in experiment [6], 15.8 nM (active); in [7], 25.1 nM (active); on SRSF protein kinase 1, > 5010 nM (inactive); in experiment [8], > 6310 nM (inactive); in [9], 12.6 nM (active). Moreover, the Ki is > 1580 nM (inactive) in experiment [10]; 126 nM (active) in [11]; 631 nM (active) in [12]; > 2000 nM (inactive) in experiment [13]; 10 nM (active) in [14]; 2000 nM (active) in [15]. In addition, in experiment [16], the Ki is 7.94 nM (active).
With `COc1ccc(-n2c(NC(=O)c3ccco3)c(C#N)c3nc4ccccc4nc32)cc1`, the half-inhibitory concentration (IC50) at Caspase-3 is 26600 nM (active); in experiment [17], 4070 nM (active); in [18] it was > 128000 nM (inactive).
